Measurements: ChEMBL document CHEMBL1255414, “Combination of V106I and V179D polymorphic mutations in human immunodeficiency virus type 1 reverse transcriptase confers resistance to efavirenz and nevirapine but not etravirine” (Antimicrob Agents Chemother, 2010)

Columns and labels:
[1] = tested on: Human immunodeficiency virus 1; experiment: Antiviral activity against recombinant HIV1 harboring reverse transcriptase V106I mutant clone infected in MAGIC-5 cells using 5-bromo4-chloro-3-indolyl-beta-D-galactopyranoside staining based light microscopy; format: functional, organism-based; details: Human immunodeficiency virus 1, MAGIC-5
[2] = tested on: Human immunodeficiency virus 1; experiment: Antiviral activity against recombinant HIV1 harboring reverse transcriptase V106I/V179D mutant clone infected in MAGIC-5 cells using 5-bromo4-chloro-3-indolyl-beta-D-galactopyranoside staining based light microscopy; format: functional, organism-based; details: Human immunodeficiency virus 1, MAGIC-5
[3] = tested on: Human immunodeficiency virus 1; experiment: Antiviral activity against recombinant HIV1 harboring reverse transcriptase V179D mutant clone infected in MAGIC-5 cells using 5-bromo4-chloro-3-indolyl-beta-D-galactopyranoside staining based light microscopy; format: functional, organism-based; details: Human immunodeficiency virus 1, MAGIC-5
[4] = tested on: Human immunodeficiency virus 1; experiment: Antiviral activity against recombinant HIV1 harboring reverse transcriptase V106A/V179D mutant clone infected in MAGIC-5 cells using 5-bromo4-chloro-3-indolyl-beta-D-galactopyranoside staining based light microscopy; format: functional, organism-based; details: Human immunodeficiency virus 1, MAGIC-5
[5] = tested on: Human immunodeficiency virus 1; experiment: Antiviral activity against recombinant HIV1 harboring reverse transcriptase V106A mutant clone infected in MAGIC-5 cells using 5-bromo4-chloro-3-indolyl-beta-D-galactopyranoside staining based light microscopy; format: functional, organism-based; details: Human immunodeficiency virus 1, MAGIC-5
[6] = tested on: Human immunodeficiency virus 1; experiment: Resistance index, ratio of EC50 for recombinant HIV1 harboring reverse transcriptase V179D mutant clone to EC50 for wild type HIV1; format: functional
[7] = tested on: Human immunodeficiency virus 1; experiment: Antiviral activity against wild type HIV1 infected in MAGIC-5 cells using 5-bromo4-chloro-3-indolyl-beta-D-galactopyranoside staining based light microscopy; format: functional, organism-based; details: Human immunodeficiency virus 1, MAGIC-5
[8] = tested on: Human immunodeficiency virus 1; experiment: Resistance index, ratio of EC50 for recombinant HIV1 harboring reverse transcriptase V106A mutant clone to EC50 for wild type HIV1; format: functional
[9] = tested on: Human immunodeficiency virus 1; experiment: Resistance index, ratio of EC50 for recombinant HIV1 harboring reverse transcriptase V106I mutant clone to EC50 for wild type HIV1; format: functional
[10] = tested on: Human immunodeficiency virus 1; experiment: Resistance index, ratio of EC50 for recombinant HIV1 harboring reverse transcriptase V106A/V179D mutant clone to EC50 for wild type HIV1; format: functional
[11] = tested on: Human immunodeficiency virus 1; experiment: Resistance index, ratio of EC50 for recombinant HIV1 harboring reverse transcriptase V106I/V179D mutant clone to EC50 for wild type HIV1; format: functional

SMILES	EC50 [1] [nM]	EC50 [2] [nM]	EC50 [3] [nM]	EC50 [4] [nM]	EC50 [5] [nM]	Ratio EC50 [6]	EC50 [7] [nM]	Ratio EC50 [8]	Ratio EC50 [9]	Ratio EC50 [10]	Ratio EC50 [11]
O=C1Nc2ccc(Cl)cc2[C@@](C#CC2CC2)(C(F)(F)F)O1 [EFAVIRENZ]	3	29	4	13	3						
Cc1cc(C#N)cc(C)c1Oc1nc(Nc2ccc(C#N)cc2)nc(N)c1Br [ETRAVIRINE]	1.5	2.4	1.9	1.4	0.5	1.6	1.2	0.4	1.3	1.2	2
Cc1ccnc2c1NC(=O)c1cccnc1N2C1CC1 [NEVIRAPINE]	20	370	130	4530	3430	2.6	50	69	0.4	91	7
